Assay results taken from ChEMBL document CHEMBL4340527, “Discovery of potent anti-inflammatory 4-(4,5,6,7-tetrahydrofuro[3,2-c]pyridin-2-yl) pyrimidin-2-amines for use as Janus kinase inhibitors” (Bioorg Med Chem, 2019).

How the values were obtained:
[1] = biological target: Tyrosine-protein kinase JAK2 (Homo sapiens, UniProt O60674)
Description: Inhibition of JAK2 (unknown origin) using TK-substrate-biotin as substrate preincubated for 5 mins followed by substrate addition and measured by 30 mins by HTRF assay

[2] = biological target: T1, Tyrosine-protein kinase JAK3 (Homo sapiens, UniProt P52333)
T1 sequence (P52333 whole entry): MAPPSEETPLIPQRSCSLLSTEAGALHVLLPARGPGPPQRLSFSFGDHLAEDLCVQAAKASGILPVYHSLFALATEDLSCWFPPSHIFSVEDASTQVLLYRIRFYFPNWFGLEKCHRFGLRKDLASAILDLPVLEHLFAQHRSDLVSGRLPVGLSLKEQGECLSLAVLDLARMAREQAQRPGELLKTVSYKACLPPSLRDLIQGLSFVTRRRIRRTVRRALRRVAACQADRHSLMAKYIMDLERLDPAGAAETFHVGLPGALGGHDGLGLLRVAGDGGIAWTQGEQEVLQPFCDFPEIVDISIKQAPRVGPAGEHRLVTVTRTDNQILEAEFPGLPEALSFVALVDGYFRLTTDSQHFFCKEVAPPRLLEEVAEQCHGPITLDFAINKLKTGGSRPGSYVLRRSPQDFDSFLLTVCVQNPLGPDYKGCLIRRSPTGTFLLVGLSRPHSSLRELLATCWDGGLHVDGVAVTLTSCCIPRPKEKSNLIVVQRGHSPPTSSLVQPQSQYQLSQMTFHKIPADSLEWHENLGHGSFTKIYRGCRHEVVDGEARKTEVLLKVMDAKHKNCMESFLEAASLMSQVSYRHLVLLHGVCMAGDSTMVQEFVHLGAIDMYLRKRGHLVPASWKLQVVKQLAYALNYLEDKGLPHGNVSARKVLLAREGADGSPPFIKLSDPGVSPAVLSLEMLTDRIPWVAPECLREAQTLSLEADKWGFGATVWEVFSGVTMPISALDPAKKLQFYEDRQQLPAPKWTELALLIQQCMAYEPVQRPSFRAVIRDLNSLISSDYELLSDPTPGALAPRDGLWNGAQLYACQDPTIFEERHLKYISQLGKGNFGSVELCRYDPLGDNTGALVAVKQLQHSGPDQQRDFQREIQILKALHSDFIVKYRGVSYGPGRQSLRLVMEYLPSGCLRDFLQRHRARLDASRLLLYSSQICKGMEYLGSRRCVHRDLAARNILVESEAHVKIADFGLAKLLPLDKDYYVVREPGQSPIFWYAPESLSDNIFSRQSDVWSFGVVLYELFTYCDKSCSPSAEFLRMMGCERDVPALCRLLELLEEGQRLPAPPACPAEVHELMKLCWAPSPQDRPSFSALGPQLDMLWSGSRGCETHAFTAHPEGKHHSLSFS
Description: Inhibition of JAK3 (unknown origin) using TK-substrate-biotin as substrate preincubated for 5 mins followed by substrate addition and measured by 30 mins by HTRF assay

[3] = biological target: Voltage-gated inwardly rectifying potassium channel KCNH2 (Homo sapiens, UniProt Q12809); assay: Inhibition of human ERG
[4] = Oral bioavailability in Sprague-Dawley rat at 10 mg/kg after 2 mins to 24 hrs by LC-MS/MS analysis; assay type: ADME, organism-based; conditions: in vivo
[5] = Volume of distribution in Sprague-Dawley rat at 2.5 mg/kg, iv after 2 mins to 24 hrs by LC-MS/MS analysis; assay type: ADME, organism-based; conditions: in vivo, read-out: Vz
in vivo [6] = conditions: rat, po, 5 mg/kg
in vivo [7] = conditions: Sprague-Dawley, rat, po, 10 mg/kg
[8] = rat, in vivo, po, 10 mg/kg
[9] = Cmax in Sprague-Dawley rat at 2.5 mg/kg, iv after 2 mins to 24 hrs by LC-MS/MS analysis; assay type: ADME, organism-based; parameters: dose 2.5 mg/kg, route intravenous; conditions: in vivo
hERG (KCNH2) [10] = biological target: T2, hERG (KCNH2) (Homo sapiens, UniProt Q12809); assay: Inhibition of human ERG at 3 uM relative to control
T2 sequence (Q12809 whole entry): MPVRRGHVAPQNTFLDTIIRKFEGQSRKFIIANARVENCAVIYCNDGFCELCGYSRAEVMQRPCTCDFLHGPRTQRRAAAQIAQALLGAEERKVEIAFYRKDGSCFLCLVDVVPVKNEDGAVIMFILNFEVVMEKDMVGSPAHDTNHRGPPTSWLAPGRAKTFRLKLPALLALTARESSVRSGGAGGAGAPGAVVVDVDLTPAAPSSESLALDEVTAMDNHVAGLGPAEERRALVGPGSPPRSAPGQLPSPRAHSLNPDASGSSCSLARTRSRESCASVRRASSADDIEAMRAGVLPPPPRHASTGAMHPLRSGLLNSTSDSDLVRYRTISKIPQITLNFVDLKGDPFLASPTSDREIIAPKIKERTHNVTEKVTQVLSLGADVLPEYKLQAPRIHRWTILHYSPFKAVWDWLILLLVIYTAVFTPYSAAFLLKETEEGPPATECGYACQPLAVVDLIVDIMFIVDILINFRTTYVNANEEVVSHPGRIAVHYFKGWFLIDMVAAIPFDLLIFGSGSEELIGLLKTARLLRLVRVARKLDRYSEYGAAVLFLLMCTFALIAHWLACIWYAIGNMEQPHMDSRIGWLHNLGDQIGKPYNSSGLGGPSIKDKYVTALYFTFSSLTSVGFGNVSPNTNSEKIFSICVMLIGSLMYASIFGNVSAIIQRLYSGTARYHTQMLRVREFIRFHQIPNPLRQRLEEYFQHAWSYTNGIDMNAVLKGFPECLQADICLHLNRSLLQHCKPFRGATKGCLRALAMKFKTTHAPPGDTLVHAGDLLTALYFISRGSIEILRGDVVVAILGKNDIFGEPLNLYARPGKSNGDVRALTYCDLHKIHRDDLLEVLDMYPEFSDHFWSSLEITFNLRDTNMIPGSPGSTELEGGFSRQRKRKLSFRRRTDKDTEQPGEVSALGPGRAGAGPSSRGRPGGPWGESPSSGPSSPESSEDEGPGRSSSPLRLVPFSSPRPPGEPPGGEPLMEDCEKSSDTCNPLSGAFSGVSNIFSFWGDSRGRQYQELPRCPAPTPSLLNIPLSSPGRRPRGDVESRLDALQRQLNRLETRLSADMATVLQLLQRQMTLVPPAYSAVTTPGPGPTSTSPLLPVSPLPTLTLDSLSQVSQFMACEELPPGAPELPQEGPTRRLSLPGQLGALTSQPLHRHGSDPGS

[11] = MRT (0 to t) in Sprague-Dawley rat at 2.5 mg/kg, iv after 2 mins to 24 hrs by LC-MS/MS analysis; assay type: ADME, organism-based; conditions: in vivo
[12] = AUC (0 to t) in Sprague-Dawley rat at 2.5 mg/kg, iv after 2 mins to 24 hrs by LC-MS/MS analysis; assay type: ADME, organism-based; parameters: time 0.033-24 hr, dose 2.5 mg/kg, route intravenous; conditions: in vivo
in vivo [13] = conditions: Sprague-Dawley, rat, po, 10 mg/kg; remark: listed apart in the source
[14] = biological target: Tyrosine-protein kinase JAK1 (Homo sapiens, UniProt P23458)
Chain of Tyrosine-protein kinase JAK1 (P23458 whole entry): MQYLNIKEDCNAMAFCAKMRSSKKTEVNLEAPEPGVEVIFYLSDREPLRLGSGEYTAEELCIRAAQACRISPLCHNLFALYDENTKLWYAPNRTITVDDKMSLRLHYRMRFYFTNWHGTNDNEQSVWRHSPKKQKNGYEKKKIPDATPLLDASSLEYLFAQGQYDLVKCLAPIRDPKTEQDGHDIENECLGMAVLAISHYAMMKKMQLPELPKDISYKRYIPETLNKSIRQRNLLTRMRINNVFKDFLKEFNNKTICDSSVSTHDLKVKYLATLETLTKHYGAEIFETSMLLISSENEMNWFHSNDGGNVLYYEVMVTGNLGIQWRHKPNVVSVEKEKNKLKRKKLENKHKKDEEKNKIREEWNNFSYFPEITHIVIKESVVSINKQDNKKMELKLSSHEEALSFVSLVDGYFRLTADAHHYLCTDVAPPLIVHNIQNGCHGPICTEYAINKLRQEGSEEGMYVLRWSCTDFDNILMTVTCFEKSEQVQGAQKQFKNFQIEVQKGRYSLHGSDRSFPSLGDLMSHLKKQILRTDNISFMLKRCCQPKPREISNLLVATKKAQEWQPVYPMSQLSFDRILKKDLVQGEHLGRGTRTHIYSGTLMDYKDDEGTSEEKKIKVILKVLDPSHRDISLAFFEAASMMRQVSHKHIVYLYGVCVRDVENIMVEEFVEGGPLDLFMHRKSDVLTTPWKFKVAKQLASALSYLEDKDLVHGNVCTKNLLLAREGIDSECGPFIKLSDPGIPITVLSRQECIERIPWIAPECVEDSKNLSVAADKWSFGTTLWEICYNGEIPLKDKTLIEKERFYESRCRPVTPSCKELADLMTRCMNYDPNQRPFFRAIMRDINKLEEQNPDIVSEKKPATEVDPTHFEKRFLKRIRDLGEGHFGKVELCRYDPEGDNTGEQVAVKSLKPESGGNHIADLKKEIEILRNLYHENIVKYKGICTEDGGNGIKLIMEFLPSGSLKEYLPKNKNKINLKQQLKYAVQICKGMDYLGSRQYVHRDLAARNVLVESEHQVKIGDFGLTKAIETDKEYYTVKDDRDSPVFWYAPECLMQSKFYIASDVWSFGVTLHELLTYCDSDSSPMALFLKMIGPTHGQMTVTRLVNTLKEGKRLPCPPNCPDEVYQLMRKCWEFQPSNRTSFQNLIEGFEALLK
Description: Inhibition of JAK1 (unknown origin) using TK-substrate-biotin as substrate preincubated for 5 mins followed by substrate addition and measured by 30 mins by HTRF assay

hERG (KCNH2) [15] = biological target: T2, hERG (KCNH2); assay: Inhibition of human ERG at 30 uM relative to control
in vivo [16] = conditions: Sprague-Dawley, rat, po, 10 mg/kg; remark: listed apart in the source
[17] = Half life in Sprague-Dawley rat at 2.5 mg/kg, iv after 2 mins to 24 hrs by LC-MS/MS analysis; assay type: ADME, organism-based; conditions: in vivo
hERG (KCNH2) [18] = biological target: T2, hERG (KCNH2); assay: Inhibition of human ERG at 0.3 uM relative to control
Rattus norvegicus [19] = assay type: functional
[20] = Clearance in Sprague-Dawley rat at 2.5 mg/kg, iv after 2 mins to 24 hrs by LC-MS/MS analysis; assay type: ADME, organism-based; conditions: in vivo
Rattus norvegicus [21] = assay type: functional; remark: listed apart in the source
in vivo [22] = conditions: Sprague-Dawley, rat, po, 10 mg/kg; remark: listed apart in the source
[23] = biological target: Non-receptor tyrosine-protein kinase TYK2 (Homo sapiens, UniProt P29597)
Chain of Non-receptor tyrosine-protein kinase TYK2 (P29597 whole entry): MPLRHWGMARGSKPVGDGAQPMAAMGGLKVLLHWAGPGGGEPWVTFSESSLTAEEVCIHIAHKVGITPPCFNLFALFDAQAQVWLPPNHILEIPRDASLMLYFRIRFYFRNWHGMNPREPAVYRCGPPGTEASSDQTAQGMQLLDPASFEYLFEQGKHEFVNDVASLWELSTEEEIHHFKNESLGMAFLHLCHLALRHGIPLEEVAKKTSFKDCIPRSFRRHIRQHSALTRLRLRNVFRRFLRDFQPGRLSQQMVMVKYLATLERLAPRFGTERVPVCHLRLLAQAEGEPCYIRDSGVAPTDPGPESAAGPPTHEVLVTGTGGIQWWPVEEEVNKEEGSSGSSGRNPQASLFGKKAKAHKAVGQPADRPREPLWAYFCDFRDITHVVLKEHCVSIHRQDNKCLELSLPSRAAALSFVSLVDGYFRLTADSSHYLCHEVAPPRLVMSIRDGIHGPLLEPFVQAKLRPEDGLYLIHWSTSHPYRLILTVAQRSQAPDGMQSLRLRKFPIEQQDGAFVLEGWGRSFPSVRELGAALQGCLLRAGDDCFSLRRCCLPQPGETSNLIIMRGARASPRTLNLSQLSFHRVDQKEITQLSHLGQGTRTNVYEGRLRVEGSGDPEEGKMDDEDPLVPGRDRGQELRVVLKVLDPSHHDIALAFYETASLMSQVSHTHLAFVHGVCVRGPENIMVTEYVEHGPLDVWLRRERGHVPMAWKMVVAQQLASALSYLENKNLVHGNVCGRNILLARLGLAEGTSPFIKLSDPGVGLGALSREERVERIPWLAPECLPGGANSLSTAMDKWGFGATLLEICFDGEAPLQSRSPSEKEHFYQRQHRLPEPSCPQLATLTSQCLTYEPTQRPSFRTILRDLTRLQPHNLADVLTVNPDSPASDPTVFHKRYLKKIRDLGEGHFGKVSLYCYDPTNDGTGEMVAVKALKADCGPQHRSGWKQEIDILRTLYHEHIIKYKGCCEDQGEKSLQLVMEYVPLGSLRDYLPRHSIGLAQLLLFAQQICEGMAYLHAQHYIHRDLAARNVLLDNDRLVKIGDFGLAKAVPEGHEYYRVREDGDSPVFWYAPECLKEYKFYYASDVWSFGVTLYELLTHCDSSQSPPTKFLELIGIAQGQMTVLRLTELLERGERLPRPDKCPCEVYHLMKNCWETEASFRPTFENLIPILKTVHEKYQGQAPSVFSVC
Description: Inhibition of Tyk2 (unknown origin)

in vivo [24] = conditions: Sprague-Dawley, rat, po, 10 mg/kg; remark: listed apart in the source

Chain of Tyrosine-protein kinase JAK2 (O60674 whole entry): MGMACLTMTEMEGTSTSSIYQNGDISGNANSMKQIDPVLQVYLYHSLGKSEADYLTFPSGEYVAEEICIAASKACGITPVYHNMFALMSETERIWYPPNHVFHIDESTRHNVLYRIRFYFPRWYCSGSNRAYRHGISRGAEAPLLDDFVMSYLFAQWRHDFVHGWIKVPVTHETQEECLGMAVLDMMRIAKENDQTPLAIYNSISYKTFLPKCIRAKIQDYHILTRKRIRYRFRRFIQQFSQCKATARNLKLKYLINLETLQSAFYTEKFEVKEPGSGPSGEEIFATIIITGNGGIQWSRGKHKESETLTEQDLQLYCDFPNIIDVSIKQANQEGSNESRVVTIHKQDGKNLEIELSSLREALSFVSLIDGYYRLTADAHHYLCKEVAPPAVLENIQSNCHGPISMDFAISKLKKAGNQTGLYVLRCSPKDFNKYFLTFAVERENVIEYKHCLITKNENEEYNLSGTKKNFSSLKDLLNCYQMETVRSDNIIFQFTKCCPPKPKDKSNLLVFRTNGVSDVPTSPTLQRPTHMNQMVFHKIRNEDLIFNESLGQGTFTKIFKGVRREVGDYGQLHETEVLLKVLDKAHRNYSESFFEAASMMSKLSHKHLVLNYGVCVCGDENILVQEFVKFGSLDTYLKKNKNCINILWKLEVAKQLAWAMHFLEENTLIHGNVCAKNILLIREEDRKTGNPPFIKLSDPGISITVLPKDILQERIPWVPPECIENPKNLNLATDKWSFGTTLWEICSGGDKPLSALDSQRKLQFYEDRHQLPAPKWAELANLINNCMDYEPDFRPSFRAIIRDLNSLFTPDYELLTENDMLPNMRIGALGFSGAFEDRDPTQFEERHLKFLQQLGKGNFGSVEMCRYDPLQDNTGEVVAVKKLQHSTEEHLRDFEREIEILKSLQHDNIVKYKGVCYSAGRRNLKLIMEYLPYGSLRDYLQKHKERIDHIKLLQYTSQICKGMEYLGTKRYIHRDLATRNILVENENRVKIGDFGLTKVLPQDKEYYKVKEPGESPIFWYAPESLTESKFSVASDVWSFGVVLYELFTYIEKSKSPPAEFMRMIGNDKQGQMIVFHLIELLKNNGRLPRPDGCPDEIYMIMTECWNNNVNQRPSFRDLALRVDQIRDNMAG

`Cc1cnc(Nc2ccc(OCCN3CCCC3)cc2)nc1-c1cc2c(o1)CCN(S(C)(=O)=O)C2` gave an IC50 [1] of 4.1 nM and an IC50 [2] of 56.7 nM.

In the case of `CCC(=O)N1CCc2oc(-c3nc(Nc4ccc(N5CCOCC5)cc4)ncc3C)cc2C1`, the IC50 [1] is reported as 5.8 nM and the IC50 [2] is reported as 112 nM.

In the case of `Cc1cnc(Nc2ccc(N3CCOCC3)cc2)nc1-c1cc2c(o1)CCN(C(=O)c1cccc(C#N)c1)C2`, the IC50 [1] is reported as 35.4 nM and the IC50 [2] is reported as 552 nM.

`Cc1cnc(Nc2ccccc2)nc1-c1cc2c(o1)CCN(S(C)(=O)=O)C2` gave an IC50 [1] of 2.7 nM and an IC50 [2] of 153 nM.

Compound `Cc1cnc(Nc2ccc([N+](=O)[O-])cc2)nc1-c1cc2c(o1)CCN(C(=O)CC#N)C2` has an IC50 [1] of 14.2 nM and an IC50 [2] of 275 nM.

With `Cc1cnc(Nc2cc(F)c(N3CCOCC3)c(F)c2)nc1-c1cc2c(o1)CCN(S(C)(=O)=O)C2` the IC50 [1] was 3.7 nM and the IC50 [2] was 195 nM.

`Cc1cnc(Nc2ccc(N3CCOCC3)cc2)nc1-c1cc2c(o1)CCN(C(=O)c1ccc(C#N)cc1)C2` showed an IC50 [1] of 28.8 nM and an IC50 [2] of 431 nM.

With `Cc1cnc(Nc2cccc(N3CCN(C)CC3)c2)nc1-c1cc2c(o1)CCN(S(C)(=O)=O)C2` the IC50 [1] was 112 nM and the IC50 [2] was 751 nM.

In the case of `Cc1cnc(Nc2cc(F)c(N3CCOCC3)c(F)c2)nc1-c1cc2c(o1)CCN(C(=O)CC#N)C2`, the IC50 [1] is reported as 4.2 nM and the IC50 [2] is reported as 88.1 nM.

In the case of `Cc1cnc(Nc2ccc(N3CCOCC3)cc2)nc1-c1cc2c(o1)CCN(C(=O)CC#N)C2`, the IC50 [3] is reported as > 30000 nM, the bioavailability [4] is reported as 54.8% and the Vd [5] is reported as 2 L/kg. For the same compound, the AUC at 240 h (in vivo [6]) was 1490 ng·h/mL, the IC50 [1] was 0.5 to 0.7 nM and the half-life (in vivo [7]) was 2.91 h. It also gave a Vz [8] of 17.82 L/kg, a Cmax [9] of 2340 ng/mL and an inhibition at 3 µM (hERG (KCNH2) [10]) of 11.2%. The MRT last [11] was 0.5 h, the IC50 [2] was 7.6 to 13.5 nM and the AUC(0-t) [12] was 1000 ng·h/mL. It also gave an AUC(0-t) (in vivo [13]) of 2190 ng·h/mL, an IC50 [14] of 5.1 nM and an inhibition at 30 µM (hERG (KCNH2) [15]) of 16.4%. The CL/F (in vivo [16]) was 71.8 mL/min/kg, the half-life [17] was 0.55 h and the inhibition at 0.3 µM (hERG (KCNH2) [18]) was 1.9%. For the same compound, the Activity (Rattus norvegicus [19]) was 113.2%, the clearance [20] was 42 mL/min/kg and the Activity (Rattus norvegicus [21]) was 14.1%. It also gave an MRT last (in vivo [22]) of 3.49 h, an IC50 [23] of 3 nM and a Cmax (in vivo [24]) of 540 ng/mL.

For `Cc1cnc(Nc2ccc(-n3ccnc3)cc2)nc1-c1cc2c(o1)CCN(S(C)(=O)=O)C2`, the IC50 [1] was 10.8 nM and the IC50 [2] was 91.3 nM.

`Cc1cnc(Nc2ccc(OCCN3CCCC3)cc2)nc1-c1cc2c(o1)CCN(C(=O)CC#N)C2` gave an IC50 [1] of 9.6 nM and an IC50 [2] of 52 nM.

Compound `COc1cc(Nc2ncc(C)c(-c3cc4c(o3)CCN(C(=O)CC#N)C4)n2)cc(OC)c1OC` has an IC50 [1] of 1.6 nM and an IC50 [2] of 12 nM.

`Cc1cnc(Nc2ccc(N3CCN(C)CC3)cc2)nc1-c1cc2c(o1)CCN(C(=O)CC#N)C2` showed an IC50 [1] of 1.6 nM and an IC50 [2] of 33.7 nM.

With `Cc1cnc(Nc2ccccc2)nc1-c1cc2c(o1)CCN(C(=O)CC#N)C2` the IC50 [1] was 2.9 nM and the IC50 [2] was 94.7 nM.

Compound `Cc1cnc(Nc2ccc(F)cc2)nc1-c1cc2c(o1)CCN(C(=O)CC#N)C2` has an IC50 [2] of 95.7 nM.

`Cc1cnc(Nc2ccc(F)cc2)nc1-c1cc2c(o1)CCN(S(C)(=O)=O)C2` gave an IC50 [1] of 12.1 nM and an IC50 [2] of 5080 nM.

`Cc1cnc(Nc2ccc(N3CCOCC3)cc2)nc1-c1cc2c(o1)CCN(C(=O)C(C)C)C2` showed an IC50 [1] of 6.4 nM and an IC50 [2] of 32.4 nM.
